In patent publication US20250090501A1, “METHODS OF TREATING GUT MOTILITY DISORDERS” (THE REGENTS OF THE UNIVERSITY OF CALIFORNIA, priority 2022, published 2025):

What was measured:
[1] = tested on: stage 2 enteric ganglioid; conditions: flow cytometry, stage 2 enteric ganglioids
[2] = tested on: stage 1 enteric ganglioids; conditions: MEA
[3] = tested on: mouse colon; assay: Ex vivo colonic motility assay (organ bath, GIMM); conditions: for CMMC intervals relative to the untreated condition: first experiment, five consecutive 10-min acquisitions, interval at 75th percentile
Procedure: Preparation of solutions: Krebs buffer [NaCl (117 mM), KCl (4.7 mM), NaH2PO4 (1.2 mM), MgCl2 (1.5 mM), CaCl2·2H2O (2.5 mM), NaHCO3 (25 mM), Glucose (11 mM), pH 7.4] was placed in a 37° C. water bath and aerated with 95% 02 and 5% CO2 (carbogen) gas mixture for at least 30 minutes prior to experiment onset. “Drug” treatment solutions were freshly prepared by adding the drug compound into Krebs buffer before starting data acquisition. The solution with NOS1 inhibitor was prepared by adding N omega-nitro-L-arginine methyl ester hydrochloride (L-NAME) to the drug solutions making “Drug+L-NAME”.
Tissue dissection: For each experimental replicate, a pair of 8-week-old wild type C57BL6 mice (male) were placed in a sealed chamber and euthanized using CO2 asphyxiation followed by cervical dislocation. The lower GI tract (cecum and colon) was removed and immediately transferred to 37° C. carbogenated Krebs buffer, with the fecal matter still inside. Adipose tissue and mesentery were removed before placing the colons in the organ bath reservoir of gastrointestinal motility monitor (GIMM) apparatus.
Experimental set-up and procedure: GIMM was designed based on a previously reported model (Swaminathan et al., 2016). The organ reservoir of GIMM has two-chambers for recording two specimens simultaneously. It is connected to working solutions kept at 37° C. via a 4-channel peristaltic pump (WPI, PERIPRO-4LS). Lower GI tract was harvested and transferred to the organ bath with the Krebs buffer was flowing through. The cecum was pinned down at the proximal tip and the distal end of the colon was pinned through the serosa/mesentery. Five 10-min (for the first experiments) or sequential 6-min (for the sequential drug treatment in the presence and absence of L-NAME) videos were recorded using the IC capture software (Imaging Source) with a high resolution monochromatic firewire industrial camera (Imaging Source®, DMK41AF02) connected to a ⅔″ 16 mm f/1.4 C-Mount Fixed Focal Lens (Fujinon HF16SA1). While tissue in the control chamber was only exposed to Krebs solution, the order of solutions in the experimental chamber was: Krebs, drug compound, Krebs (6 min each), L-NAME (2 min), L-NAME in the presence of a drug compound (6 min) and Krebs (6 min). The chambers were cleaned after each acquisition.
Data and statistical analysis: VolumetryG9a was used to generate the spatiotemporal map (STM) of each acquisition (Spear et al., 2018). Slow waves (SW) and colonic migrating motor complexes (CMMC) data were generated from STMs. Statistical analyses were performed using PRISM.
For selected compounds, a more comprehensive and integrated target analysis was performed by combining reported experimental data (Binding DB) and computational methods (SEA, Carlsbad, Dinies, Swisstarget, Superdrug, Pubchem Bioassays, FIG. 2G). The effects of these compounds was tested on colonic motility in organ bath assays (FIG. 2H). In these assays, resected segments of mouse colon were maintained in a physiologic buffer to study motility patterns using video recording. In the first experiment the effect of all selected drug candidates was tested on mouse colonic motility, ex vivo (FIG. 2I). In each experiment, an untreated control and a drug-treated colon sample were tested side by side during five consecutive 10-min acquisitions. For each acquisition, instead of analyzing fecal outputs, which are generally variable, more sophisticated contraction analysis was performed by generating spatiotemporal maps from video data based on the changes in the colonic diameter over time, and used to calculate the rate of colonic migrating motor complexes (CMMC) and slow waves (SW).

[4] = tested on: hESC-derived 2D ENS cultures (NOS1+ cells); assay: High-throughput screening to identify compounds that enrich NO neurons; assay type: cell-based, human; design: dose or concentration left out as unconfirmed; conditions: 1694 inhibitors, treated D15-D20, read at day 40
Procedure: Day 15 H9 hESC-derived enteric crestospheres were dissociated into single cells (accutase, Stemcell Technologies, 07920, 30 min, 37° C.), resuspended in ENC medium and were transferred into 384-well plates. Plates were incubated for 2 hours for cells to attach. Using a pin tool, drugs from a library of 1694 inhibitors (SelleckChem, USA) were added to wells at the final concentration of […] and plates were incubated with drugs until D20, when media were changed to ENC with no drugs. At day 40, cells were fixed, stained for NOS1 and imaged using InCellAnalyzer 2000 (GE Healthcare, USA). Hits were selected based on the fold increase of the percentage of NOS1^+ cells relative to the wells treated with vehicle (DMSO).
(§1) To identify compounds that induce NO neuron differentiation, enteric crestospheres were treated with 1694 compounds in the Selleck inhibitor Library™ and 12 hit compounds that increased the proportion of NOS1^+ neurons by at least eight folds were identified (FIG. 7A and FIG. 8A-B). […] After clustering the predicted protein targets, common patterns emerged for a subset of compounds.

[5] = tested on: stage 1 NOS1::GFP enteric ganglioids; assay: NO neuron induction in stage 1 enteric ganglioids (flow cytometry); assay type: cell-based, human; conditions: for NO neuron induction / NO neuron proportions in response to RTK ligands: stage 1 enteric ganglioids
Procedure: List of antibodies and working dilutions is not shown.
as §1
To determine the mechanism by which PP121 induced NO neuron enrichment in ganglioids, a combination of pharmacological and genetic approaches was used. […] The crestosphere snRNA-seq analysis confirmed the expression of PDGFRA, PDGFRB, ERBB2, and ERBB3 while the mRNA for VEGFRs were not detectable (FIG. 7L). The induction efficiency of NO neurons was evaluated in response to PDGF (PDGFR agonist), sunitinib (PDGFR and VEGFR antagonist), NRG1 (ERBBs agonist), and sapitinib (ERBBs antagonist) (FIG. 7M). […] To genetically confirm the role of PDGFR signaling in NO neuron induction, CRISPR-Cas9 was used to knock-out PDGFRA and PDGFRB in the enteric crestospheres and the percentage of NO neurons in stage 1 ganglioids was analyzed. NO neurons were […] in both PDGFRA and PDGFRB knock-out cultures further confirming the PP121 mechanism of action (FIG. 7O-P).

[6] = tested on: stage 1 enteric ganglioids; assay: snRNA-seq comparison of PP121 treated vs control enteric ganglioids; assay type: cell-based, human; conditions: snRNA-seq sub-clustering
Procedure: All tubes and pipet tips used for cell harvesting were pre-treated with 1% BSA in 1×PBS. Cells were dissociated in Accutase (Stem Cell) at 37° C., in 10 min increments, with end-to-end rotation, until single cell suspension was obtained. The cells were washed in Cell Staining Buffer (Biolegend) and stained with TotalSeq HTO antibodies for 30 min on ice. The cells were washed twice in Cell Staining Buffer and filtered through a 40 μm pipette tip strainer (BelArt). […] The libraries were sequenced on Illumina NovaSeq sequencer in the Center for Advanced Technologies (UCSF). The cell feature matrices were extracted using kallisto/bustools, and demultiplexed using seurat.
To compare the gene expression of control and PP121 treated cell types, neuronal subtypes and NO neuron subtypes, a subset dataset of each cell type and subtype annotation was first created. For each subset, the non-imputed average expression of all genes was then calculated for the control and PP121 treated cells using the “AverageExpression” function and natural log transformed for plotting. R2 values comparing the control and PP121 natural log expression values were calculated from linear modeling using the “y˜x” formula.
To compare PP121 treated and untreated stage 1 enteric ganglioids in single cell resolution, snRNA-seq was performed, and both datasets combined.

[7] = tested on: PDGFRs; conditions: cited from earlier work
[8] = tested on: VEGFRs; conditions: cited from earlier work
[9] = tested on: EGFRs; conditions: cited from earlier work
[10] = 6-min treatment, all five replicates

CNC[C@H](O)c1ccc(O)c(O)c1 [Epinephrine, epinephrine]
neuronal cFOS expression [1]: induced neuronal cFOS expression | electrical firing of ganglioid neurons [2]: increased electrical firing

Cc1cccc(C#Cc2ccccc2)n1 [MPEP]
CMMC intervals relative to the untreated condition [3]: promising effects on lowering CMMC intervals

Nc1ncnc2c1c(-c1cnc3[nH]ccc3c1)nn2C1CCCC1 [PP121]
fold increase of the percentage of NOS1+ cells relative to vehicle (DMSO) [4]: highest % NOS1^+ fold increase in this subset of compounds | NO neuron induction efficiency by treatment window ([5]; 2 μM PP121, five days at various time points, GFP signal): highest induction efficiency for cells treated during day 15-20 | NO neuron induction efficiency, concentration dependence ([5]; different PP121 concentrations at D15-D20, flow cytometry): dose-dependent effect | abundance of neuronal subtypes [6]: enriched cultures for neuronal subtypes EN D and H | inhibitory activity on PDGFRs [7]: known inhibitory activity | inhibitory activity on VEGFRs [8]: known inhibitory activity | inhibitory activity on EGFRs [9]: known inhibitory activity

O=C1CCc2ccc(OCCCCN3CCN(c4cccc(Cl)c4Cl)CC3)cc2N1 [aripiprazole]
CMMC intervals relative to the untreated condition [3]: promising effects on lowering CMMC intervals

Cc1cccc([C@H](C)c2cnc[nH]2)c1C [dexmedetomidine]
average duration of LCEs [3, 10]: increasing trend | total number of longitudinal contractile events (LCEs) [3, 10]: decrease | effects on LCEs after the drug removal ([3]; Krebs washout): reversed | effects on LCEs with L-NAME co-treatment ([3]; L-NAME co-treatment): blocked | effect on CMMC intervals with L-NAME ([3]; dexmedetomidine+L-NAME simultaneously): absent | CMMC intervals relative to the untreated condition [3]: promising effects on lowering CMMC intervals | CMMC intervals ([3]; sequential 6-min treatments, five sample pairs, 1 μM, drug alone): decreased CMMC intervals in four out of five colon samples

O=C1CCC[C@@H]2[C@H]3CCCN4CCC[C@@H](CN12)[C@@H]34 [matrine]
CMMC intervals relative to the untreated condition [3]: promising effects on lowering CMMC intervals

CNC(=O)CN1CCC(Oc2cc3c(Nc4cccc(Cl)c4F)ncnc3cc2OC)CC1 [sapitinib]
NO neuron induction / NO neuron proportions in response to RTK ligands [5]: no significant effect

PDGF
NO neuron induction / NO neuron proportions in response to RTK ligands [5]: lower
